In US7855177B1, “Methods and kits for preventing hypoglycemia” (Cebix Inc., priority 2009, dated 2010):

Legend:
Assay type in all cases: in vivo, human
[1] = test system: type 1 diabetes patients with peripheral neuropathy; assay: Phase II trial: ECG and vital signs; settings: for BPd (diastolic blood pressure), change from baseline to 6 months treatment, Mean ± SD / BPd (diastolic blood pressure), change from baseline to 6 months treatment, Median / BPs (systolic blood pressure), change from baseline to 6 months treatment, Mean ± SD / BPs (systolic blood pressure), change from baseline to 6 months treatment, Median / Heart rate, change from baseline to 6 months treatment, Mean ± SD / Heart rate, change from baseline to 6 months treatment, Median / QTc-interval Bazett, change from baseline to 6 months treatment, Mean ± SD / QTc-interval Bazett, change from baseline to 6 months treatment, Median / QTc-interval Fredericia, change from baseline to 6 months treatment, Mean ± SD / QTc-interval Fredericia, change from baseline to 6 months treatment, Median: PP data set
Protocol: ECG was performed at baseline and at end of study, i.e., visit 4 (at 6 months±2 weeks from the S/B visit).

[2] = test system: type 1 diabetes patients with peripheral neuropathy; assay: Phase II trial: hypoglycemic events and hypoglycemic coma
Protocol: The study was a multicenter, double-blind, randomized, placebo-controlled phase II trial comparing the effect of subcutaneous injection (S.C.) of 500 nmoL/24 h (1.5 mg) C-peptide; 1,500 nmoL/24 h (4.5 mg) C-peptide and placebo treatment for 6 months in type 1 diabetes patients with peripheral neuropathy.
Hypoglycemic events are common events in insulin-treated patients. For practical reasons only severe hypoglycemic events, i.e., if the patient required assistance from another person in order to regain normoglycaemia, were reported as an AE.

[3] = Phase II trial: C-peptide plasma levels (time-resolved fluoroimmunoassay)
Protocol: The sampling of C-peptide in plasma at visits 2 and 4 coincided with the clinical visit and the time between the most recent administration of the trial drug and sampling varied between patients. Thereby, the result of C-peptide concentrations in plasma was less suitable for pharmacokinetic evaluations, but the results contributed to the assessment of treatment compliance.
C-peptide plasma levels were measured at baseline, and after 3 and 6 months of treatment. Analysis was performed by the Department of Clinical Chemistry Karolinska University Hospital, Solna using a time-resolved fluoroimmunoassay (AutoDelfia, Wallac Oy, Turku, Finland). […] The plasma levels of C-peptide attained in this study ranged from about 0.2 nM to a maximum of about 6 nM in the high dose group.
C-peptide plasma levels were also measured pre-dosing in the morning in 22 randomly selected patients at the Karolinska Hospital after 4.5 months of study treatment (visit 3). As compared to the C-peptide concentration at baseline, the C-peptide plasma level at this visit was unchanged in the placebo-treated patients (0±0.008 nmoL/L; n=10), increased by 0.045±0.092 nmoL/L in the low-dose C-peptide group (n=8) and increased by 0.13±0.083 nmoL/L in the high-dose C-peptide group (n=4).

[4] = High-dose C-peptide, Metabolism and nutritional disorders
[5] = Low-dose C-peptide, Metabolism and nutritional disorders

SMILES: CC(C)C[C@H](NC(=O)[C@H](C)NC(=O)[C@H](CC(C)C)NC(=O)[C@@H]1CCCN1C(=O)[C@H](CCC(N)=O)NC(=O)[C@H](CC(C)C)NC(=O)[C@H](CO)NC(=O)CNC(=O)[C@H](C)NC(=O)CNC(=O)[C@@H]1CCCN1C(=O)CNC(=O)CNC(=O)CNC(=O)[C@H](CC(C)C)NC(=O)[C@H](CCC(=O)O)NC(=O)[C@@H](NC(=O)[C@H](CCC(N)=O)NC(=O)CNC(=O)[C@@H](NC(=O)[C@H](CCC(N)=O)NC(=O)[C@H](CC(C)C)NC(=O)[C@H](CC(=O)O)NC(=O)[C@H](CCC(=O)O)NC(=O)[C@H](C)NC(=O)[C@@H](N)CCC(=O)O)C(C)C)C(C)C)C(=O)N[C@@H](CCC(=O)O)C(=O)NCC(=O)N[C@@H](CO)C(=O)N[C@@H](CC(C)C)C(=O)N[C@@H](CCC(N)=O)C(=O)O [C-peptide]
- BPd (diastolic blood pressure), change from baseline to 6 months treatment, Mean ± SD ([1]; High-dose C-peptide, n = 39): −2.6 ± 8.0 mm Hg
- BPd (diastolic blood pressure), change from baseline to 6 months treatment, Median ([1]; High-dose C-peptide, n = 39): −1.0 mm Hg
- BPs (systolic blood pressure), change from baseline to 6 months treatment, Mean ± SD ([1]; High-dose C-peptide, n = 39): −8.8 ± 10.0 mm Hg
- BPs (systolic blood pressure), change from baseline to 6 months treatment, Median ([1]; High-dose C-peptide, n = 39): −8.0 mm Hg
- Heart rate, change from baseline to 6 months treatment, Mean ± SD ([1]; High-dose C-peptide, n = 39): −3.2 ± 10.0 bpm
- Heart rate, change from baseline to 6 months treatment, Median ([1]; High-dose C-peptide, n = 39): −4.0 bpm
- QTc-interval Bazett, change from baseline to 6 months treatment, Mean ± SD ([1]; High-dose C-peptide, n = 39): -4.5 ± 20.3 ms
- QTc-interval Bazett, change from baseline to 6 months treatment, Median ([1]; High-dose C-peptide, n = 39): 0.0 ms
- QTc-interval Fredericia, change from baseline to 6 months treatment, Mean ± SD ([1]; High-dose C-peptide, n = 39): -0.5 ± 16.2 ms
- QTc-interval Fredericia, change from baseline to 6 months treatment, Median ([1]; High-dose C-peptide, n = 39): 0.0 ms
- BPd (diastolic blood pressure), change from baseline to 6 months treatment, Mean ± SD ([1]; Low-dose C-peptide, n = 53): −2.7 ± 8.2 mm Hg
- BPd (diastolic blood pressure), change from baseline to 6 months treatment, Median ([1]; Low-dose C-peptide, n = 53): −1.0 mm Hg
- BPs (systolic blood pressure), change from baseline to 6 months treatment, Mean ± SD ([1]; Low-dose C-peptide, n = 53): −2.1 ± 12.8 mm Hg
- BPs (systolic blood pressure), change from baseline to 6 months treatment, Median ([1]; Low-dose C-peptide, n = 53): −1.0 mm Hg
- Heart rate, change from baseline to 6 months treatment, Mean ± SD ([1]; Low-dose C-peptide, n = 53): −0.9 ± 8.2 bpm
- Heart rate, change from baseline to 6 months treatment, Median ([1]; Low-dose C-peptide, n = 53): −2.0 bpm
- QTc-interval Bazett, change from baseline to 6 months treatment, Mean ± SD ([1]; Low-dose C-peptide, n = 53): -0.1 ± 17.5 ms
- QTc-interval Bazett, change from baseline to 6 months treatment, Median ([1]; Low-dose C-peptide, n = 53): 0.0 ms
- QTc-interval Fredericia, change from baseline to 6 months treatment, Mean ± SD ([1]; Low-dose C-peptide, n = 53): 0.9 ± 14.1 ms
- QTc-interval Fredericia, change from baseline to 6 months treatment, Median ([1]; Low-dose C-peptide, n = 53): 1.3 ms
- changes in heart rate, blood pressure, and QTc ([1]; any of the three treatment groups): nor were there any significant changes
- decrease in systolic blood pressure compared to the low-dose C-peptide group ([1]; high-dose C-peptide group, p<0.004, not different from placebo): significantly greater decrease
- hypoglycemic coma episodes requiring external assistance ([2]; C-peptide treated group): Two
- occurrences of hypoglycemic coma ([2]; C-peptide treated groups, 6 months, none in placebo group): four
- Blood glucose fluctuation, number of AEs [2, 4]: 0
- Hyperglycemia, number of AEs [2, 4]: 1
- Hyperlipidemia, number of AEs [2, 4]: 0
- Hypoglycemia, number of AEs [2, 4]: 5
- Hypoglycemia, number of AEs probably/possibly related to study drug [2, 4]: 1
- Hypoglycemic coma, number of AEs [2, 4]: 2
- Hypothyroidism, number of AEs [2, 4]: 0
- Increased appetite, number of AEs [2, 4]: 0
- Insulin sensitivity, number of AEs [2, 4]: 0
- Vitamin B12 deficiency, number of AEs [2, 4]: 1
- Blood glucose fluctuation, number of AEs [2, 5]: 0
- Hyperglycemia, number of AEs [2, 5]: 1 (1)
- Hyperglycemia, number of AEs probably/possibly related to study drug [2, 5]: 1 (1)
- Hyperlipidemia, number of AEs [2, 5]: 1
- Hypoglycemia, number of AEs [2, 5]: 2
- Hypoglycemia, number of AEs probably/possibly related to study drug [2, 5]: 1
- Hypoglycemic coma, number of AEs [2, 5]: 2
- Hypothyroidism, number of AEs [2, 5]: 0
- Increased appetite, number of AEs [2, 5]: 0
- Insulin sensitivity, number of AEs [2, 5]: 1 (1)
- Insulin sensitivity, number of AEs probably/possibly related to study drug [2, 5]: 1 (1)
- Vitamin B12 deficiency, number of AEs [2, 5]: 0
- risk of hypoglycemic coma ([2]; subpopulation of patients, C-peptide replacement therapy): increased risk of hypoglycemic coma
- expected concentrations relative to the low dose regimen ([3]; high dose 1,500 nmoL/24 h S.C., expected): ~3 times
- increase of pre-dosing morning C-peptide plasma level vs baseline ([3]; high-dose C-peptide group, n=4, 4.5 months (visit 3)): 0.13 ± 0.083 nmol/L
- expected physiological mean plasma concentration ([3]; low dose 500 nmoL/24 h S.C., 4 times daily, expected): ~1 nmoL/L
- increase of pre-dosing morning C-peptide plasma level vs baseline ([3]; low-dose C-peptide group, n=8, 4.5 months (visit 3)): 0.045 ± 0.092 nmol/L
